Test results taken from patent publication US20230219986A1, “NOVEL AMINOPYRIMIDINE EGFR INHIBITOR” (QILU PHARMACEUTICAL CO., LTD., priority 2020, published 2023).

Tests used:
[1] = target: T1, L858R/T790M/C797S triple mutant EGFR (Homo sapiens, UniProt P00533, C797S/L858R/T790M); experiment: Enzymology experiment in vitro (HTRF/FRET kinase activity), L858R/T790M/C797S triple mutant EGFR; type: biochemical; conditions: HTRF KinEASE-TK, read-out: EGFR (L858R/T790M/C797S) IC50
T1 construct: purchased Signalchem
T1 sequence (P00533 25-1210 T790M/C797S/L858R): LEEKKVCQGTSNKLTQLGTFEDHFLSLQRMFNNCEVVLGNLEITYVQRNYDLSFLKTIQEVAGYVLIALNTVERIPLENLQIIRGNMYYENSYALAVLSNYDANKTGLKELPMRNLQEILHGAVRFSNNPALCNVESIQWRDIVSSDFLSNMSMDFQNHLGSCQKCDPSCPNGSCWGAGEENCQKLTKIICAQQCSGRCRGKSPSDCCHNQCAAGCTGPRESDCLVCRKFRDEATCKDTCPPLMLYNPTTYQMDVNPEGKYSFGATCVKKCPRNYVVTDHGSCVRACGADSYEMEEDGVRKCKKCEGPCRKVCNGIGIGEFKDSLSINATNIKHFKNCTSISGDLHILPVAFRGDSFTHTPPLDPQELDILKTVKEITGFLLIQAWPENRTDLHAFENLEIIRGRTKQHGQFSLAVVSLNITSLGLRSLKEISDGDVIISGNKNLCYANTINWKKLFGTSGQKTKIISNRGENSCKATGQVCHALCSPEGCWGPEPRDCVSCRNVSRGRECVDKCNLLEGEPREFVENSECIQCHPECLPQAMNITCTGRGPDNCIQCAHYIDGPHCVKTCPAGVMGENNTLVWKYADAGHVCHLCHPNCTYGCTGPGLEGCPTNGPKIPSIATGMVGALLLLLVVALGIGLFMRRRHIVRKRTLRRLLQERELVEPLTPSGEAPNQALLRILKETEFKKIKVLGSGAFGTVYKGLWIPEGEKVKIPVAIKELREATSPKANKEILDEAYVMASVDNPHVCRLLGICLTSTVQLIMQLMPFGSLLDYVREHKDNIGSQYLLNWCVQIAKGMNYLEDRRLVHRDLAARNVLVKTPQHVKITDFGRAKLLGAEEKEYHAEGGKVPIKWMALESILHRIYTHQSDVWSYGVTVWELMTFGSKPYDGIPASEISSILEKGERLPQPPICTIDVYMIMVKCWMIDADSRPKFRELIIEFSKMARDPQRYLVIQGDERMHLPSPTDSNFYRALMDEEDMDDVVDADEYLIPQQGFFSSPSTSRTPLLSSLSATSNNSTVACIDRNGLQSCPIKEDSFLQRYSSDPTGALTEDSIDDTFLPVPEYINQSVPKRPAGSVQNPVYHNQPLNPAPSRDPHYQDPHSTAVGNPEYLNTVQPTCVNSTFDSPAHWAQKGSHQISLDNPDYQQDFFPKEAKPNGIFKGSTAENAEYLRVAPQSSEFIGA
Protocol: (§1) 1. Experimental Materials
(§2) HTRF KinEASE-TK kit detection reagent, purchased from Cisbio
(§3) 1) 10 nL of gradient diluted compound was transferred into a 384-well experimental plate using Echo 550 (Labcyte).
(§4) 2) 5 μL of 2×EGFR enzyme solution was added to the 384-well experimental plate and incubated at room temperature for 10 minutes.
(§5) 3) 5 μL of 2× substrate solution containing polypeptide and ATP was added to the 384-well experimental plate and incubated at room temperature for 40 minutes.
(§6) 4) 10 μL of detection solution containing EDTA, XL665-labeled streptavidin and Eu^3+-labeled antibody was added thereto and incubated at room temperature for 1 hour.

[2] = target: Ba/F3 De119/T790M/C797S EGFR triple mutant cell line (Homo sapiens, UniProt P00533, T790M/C797S, cells depend on it, form not given); experiment: Cell proliferation inhibition experiment (CellTiter-Glo), Ba/F3 De119/T790M/C797S; type: cell-based; conditions: Ba/F3 Del19/T790M/C797S EGFR triple mutant cells, 72 hours, Cell Titer-Glo; read-out: Ba/F3 (Del19/T790M/C797S) IC50
Sequence of Ba/F3 De119/T790M/C797S EGFR triple mutant cell line (P00533 with tags, fused parts or gaps DEL746-750/T790M/C797S, form open): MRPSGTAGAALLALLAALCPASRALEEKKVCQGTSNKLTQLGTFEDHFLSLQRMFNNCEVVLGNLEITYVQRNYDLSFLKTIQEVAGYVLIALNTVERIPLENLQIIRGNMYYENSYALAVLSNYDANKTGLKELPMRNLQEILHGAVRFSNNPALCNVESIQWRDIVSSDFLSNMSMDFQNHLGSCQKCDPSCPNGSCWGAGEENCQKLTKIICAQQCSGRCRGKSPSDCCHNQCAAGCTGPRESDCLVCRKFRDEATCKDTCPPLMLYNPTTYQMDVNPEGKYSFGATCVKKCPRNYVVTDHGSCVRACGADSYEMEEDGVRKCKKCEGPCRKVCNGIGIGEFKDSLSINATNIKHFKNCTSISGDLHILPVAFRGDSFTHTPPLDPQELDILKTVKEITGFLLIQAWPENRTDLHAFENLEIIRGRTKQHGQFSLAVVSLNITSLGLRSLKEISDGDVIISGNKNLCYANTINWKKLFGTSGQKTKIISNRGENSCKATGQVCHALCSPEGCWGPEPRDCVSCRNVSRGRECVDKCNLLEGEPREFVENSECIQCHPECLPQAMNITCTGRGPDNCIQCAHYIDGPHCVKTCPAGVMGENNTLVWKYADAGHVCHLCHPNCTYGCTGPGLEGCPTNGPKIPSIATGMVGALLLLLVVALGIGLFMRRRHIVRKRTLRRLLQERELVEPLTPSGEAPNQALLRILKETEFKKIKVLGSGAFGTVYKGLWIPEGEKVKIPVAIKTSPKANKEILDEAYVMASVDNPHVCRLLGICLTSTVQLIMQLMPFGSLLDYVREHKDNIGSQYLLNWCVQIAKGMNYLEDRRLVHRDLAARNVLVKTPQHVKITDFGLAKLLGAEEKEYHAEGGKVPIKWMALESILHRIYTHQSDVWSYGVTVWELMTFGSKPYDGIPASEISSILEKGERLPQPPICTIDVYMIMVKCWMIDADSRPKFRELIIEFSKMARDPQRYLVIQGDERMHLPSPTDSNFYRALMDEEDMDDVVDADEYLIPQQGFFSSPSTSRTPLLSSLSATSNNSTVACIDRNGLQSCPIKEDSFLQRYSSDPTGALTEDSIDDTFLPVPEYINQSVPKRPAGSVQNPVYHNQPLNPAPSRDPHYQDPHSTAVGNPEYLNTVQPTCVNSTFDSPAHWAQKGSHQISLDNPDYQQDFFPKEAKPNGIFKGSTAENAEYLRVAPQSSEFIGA

wild-type EGFR = target: T2, wild-type EGFR (Homo sapiens, UniProt P00533); experiment: Enzymology experiment in vitro (HTRF/FRET kinase activity), wild-type EGFR; type: biochemical; conditions: HTRF KinEASE-TK, read-out: EGFR (WT) IC50
T2 construct: purchased Signalchem
T2 sequence (P00533 25-1210): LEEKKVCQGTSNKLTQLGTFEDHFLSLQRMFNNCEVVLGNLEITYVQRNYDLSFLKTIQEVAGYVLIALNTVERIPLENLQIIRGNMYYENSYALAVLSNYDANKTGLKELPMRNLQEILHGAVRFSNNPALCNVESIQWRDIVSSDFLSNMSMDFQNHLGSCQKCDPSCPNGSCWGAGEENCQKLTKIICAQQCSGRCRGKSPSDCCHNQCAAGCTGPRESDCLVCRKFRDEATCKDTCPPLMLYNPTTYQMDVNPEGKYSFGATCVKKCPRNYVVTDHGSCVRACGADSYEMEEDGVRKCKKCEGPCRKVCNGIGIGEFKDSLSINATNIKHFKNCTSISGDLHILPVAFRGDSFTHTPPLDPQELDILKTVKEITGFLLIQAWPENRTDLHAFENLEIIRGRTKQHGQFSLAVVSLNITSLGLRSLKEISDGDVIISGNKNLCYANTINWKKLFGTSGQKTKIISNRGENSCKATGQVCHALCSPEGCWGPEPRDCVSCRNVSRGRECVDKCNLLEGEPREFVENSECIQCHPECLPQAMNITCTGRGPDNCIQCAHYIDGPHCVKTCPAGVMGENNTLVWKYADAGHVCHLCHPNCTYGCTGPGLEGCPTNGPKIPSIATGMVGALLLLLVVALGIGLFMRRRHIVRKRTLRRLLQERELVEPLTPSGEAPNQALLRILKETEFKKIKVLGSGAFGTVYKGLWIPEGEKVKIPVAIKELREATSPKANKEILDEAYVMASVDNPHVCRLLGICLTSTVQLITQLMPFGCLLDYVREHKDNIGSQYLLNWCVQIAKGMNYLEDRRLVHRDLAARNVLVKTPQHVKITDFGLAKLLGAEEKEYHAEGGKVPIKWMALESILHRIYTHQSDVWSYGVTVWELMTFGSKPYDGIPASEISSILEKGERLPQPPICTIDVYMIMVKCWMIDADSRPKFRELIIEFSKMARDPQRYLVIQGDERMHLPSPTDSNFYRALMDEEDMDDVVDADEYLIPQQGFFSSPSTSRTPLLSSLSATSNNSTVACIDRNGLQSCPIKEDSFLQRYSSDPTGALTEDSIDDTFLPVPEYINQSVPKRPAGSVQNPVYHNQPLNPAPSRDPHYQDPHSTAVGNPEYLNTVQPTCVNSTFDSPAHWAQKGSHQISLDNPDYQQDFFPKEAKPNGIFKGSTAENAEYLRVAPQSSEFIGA
Protocol: as §1, §2, §3, §4, §5, §6

[3] = target: Ba/F3 L858R/T790M/C797S EGFR triple mutant cell line (Homo sapiens, UniProt P00533, T790M/C797S/L858R, cells depend on it); experiment: Cell proliferation inhibition experiment (CellTiter-Glo), Ba/F3 L858R/T790M/C797S; type: cell-based; conditions: 72 hours, Cell Titer-Glo, read-out: Ba/F3 (L858R/T790M/C797S) IC50
Sequence of Ba/F3 L858R/T790M/C797S EGFR triple mutant cell line (P00533 whole entry T790M/C797S/L858R): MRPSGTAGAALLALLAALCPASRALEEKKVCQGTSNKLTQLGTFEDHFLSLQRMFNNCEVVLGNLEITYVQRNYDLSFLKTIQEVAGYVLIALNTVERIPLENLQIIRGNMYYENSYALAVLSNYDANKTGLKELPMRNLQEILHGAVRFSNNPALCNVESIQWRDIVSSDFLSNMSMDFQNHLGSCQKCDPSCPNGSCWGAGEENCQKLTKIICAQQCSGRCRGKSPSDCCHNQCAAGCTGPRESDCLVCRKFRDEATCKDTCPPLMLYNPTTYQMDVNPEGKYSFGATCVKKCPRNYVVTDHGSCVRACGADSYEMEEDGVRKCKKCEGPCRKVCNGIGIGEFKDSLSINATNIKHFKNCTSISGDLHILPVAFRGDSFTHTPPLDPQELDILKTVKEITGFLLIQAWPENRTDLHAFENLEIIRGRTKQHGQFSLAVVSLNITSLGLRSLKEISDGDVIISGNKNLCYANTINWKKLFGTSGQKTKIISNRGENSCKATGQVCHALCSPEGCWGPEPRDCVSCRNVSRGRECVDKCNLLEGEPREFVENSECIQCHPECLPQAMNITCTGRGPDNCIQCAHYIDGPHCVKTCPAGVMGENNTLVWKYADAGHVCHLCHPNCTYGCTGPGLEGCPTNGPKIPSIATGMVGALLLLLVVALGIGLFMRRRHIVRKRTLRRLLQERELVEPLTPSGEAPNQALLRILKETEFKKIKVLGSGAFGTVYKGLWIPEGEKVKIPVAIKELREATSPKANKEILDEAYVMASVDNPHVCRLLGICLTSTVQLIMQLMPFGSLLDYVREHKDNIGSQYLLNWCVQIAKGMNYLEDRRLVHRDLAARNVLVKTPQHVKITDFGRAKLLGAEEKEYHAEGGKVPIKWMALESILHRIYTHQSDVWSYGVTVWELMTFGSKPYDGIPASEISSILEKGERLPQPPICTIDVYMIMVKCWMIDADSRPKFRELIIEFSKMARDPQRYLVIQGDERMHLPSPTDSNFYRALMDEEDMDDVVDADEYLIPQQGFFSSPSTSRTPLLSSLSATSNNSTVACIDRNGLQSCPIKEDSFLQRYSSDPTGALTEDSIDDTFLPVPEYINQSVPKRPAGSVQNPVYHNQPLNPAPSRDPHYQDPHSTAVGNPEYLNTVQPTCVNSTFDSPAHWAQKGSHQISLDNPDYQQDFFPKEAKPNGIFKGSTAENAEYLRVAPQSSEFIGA

[4] = system: EGFR wild-type cell line A431; experiment: Cell proliferation inhibition experiment (CellTiter-Glo), A431; type: cell-based; conditions: Homo sapiens, A-431, 72 h, A431 cells, Cell Titer-Glo, read-out: A431 EGFR WT IC50
Outline: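 Luminescent CellTiter-Glo readout, 30 min at room temperature, after 72 h compound exposure at 37° C., 5% CO2 with 0.1% DMSO final. EGFR wild-type A431 cells were seeded at 800 per well and grown 24 h before dosing. IC50 derived from the dose-response.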

| IC50 [1] [nM] | GI50 [2] [nM] | IC50 (wild-type EGFR) [nM] | GI50 [3] [nM] | IC50 [4] [nM] | SMILES |
| --- | --- | --- | --- | --- | --- |
| 0.45 | 1.8 | 4.94 | 8.14 | 280 | COc1cc(N2CCO[C@@H](C)C2)c(-c2cnn(C)c2)cc1Nc1ncc(Br)c(Nc2ccc3nccnc3c2P(C)(C)=O)n1 [compound 170] |
| 0.62 | 2.07 | 3.42 | 9.96 | 37.2 | CN(C)CCN1CCOc2c(Nc3ncc(Br)c(Nc4ccc5nccnc5c4P(C)(C)=O)n3)cc(-c3cnn(C)c3)cc21 [compound 122] |
| 3.81 | 1.05 | 33.5 | 7.29 | 372 | COc1cc(N2CCC(OCC3CC3)CC2)c(-c2cnn(C)c2)cc1Nc1ncc(Br)c(Nc2ccc3nccnc3c2P(C)(C)=O)n1 [compound 156] |
| 0.4 | 1.37 | 1.48 | 6.84 | 54.3 | COc1cc(N2CCC(N3CCC(OC)CC3)CC2)c(-c2cnn(C)c2)cc1Nc1ncc(Br)c(Nc2ccc3nccnc3c2P(C)(C)=O)n1 [compound 179] |
| 1.3 | 11.2 | 26.4 | 30.9 | 380 | COc1cc(N2C[C@@H]3C[C@H]2CO3)c(-c2cnn(C)c2)cc1Nc1ncc(Br)c(Nc2ccc3nccnc3c2P(C)(C)=O)n1 [compound 107] |
| 0.43 | 0.61 | 5.62 | 0.87 | 56.6 | COc1cc(N2CCC(C)(OC)CC2)c(-c2cnn(C)c2)cc1Nc1ncc(Br)c(Nc2ccc3nccnc3c2P(C)(C)=O)n1 [compound 188] |
| 0.11 | 2.33 | 2.11 | 4.16 | 40.9 | CCN1CCN(c2cc(OC)c(Nc3ncc(Br)c(Nc4ccc5nccnc5c4P(C)(C)=O)n3)cc2-c2cnn(C)c2)CC1 [compound 89] |
| 0.4 | 2.55 | 3.31 | 8.95 | 85 | COc1nc(N2CCC3(CCN(CCF)CC3)CC2)c(-c2cnn(C)c2)cc1Nc1ncc(Br)c(Nc2ccc3nccnc3c2P(C)(C)=O)n1 [compound 249] |
| 0.34 | 2.97 | 3.26 | 5.96 | 61.9 | COc1cc(N2CCN3CCC[C@@H]3C2)c(-c2cnn(C)c2)cc1Nc1ncc(Br)c(Nc2ccc3nccnc3c2P(C)(C)=O)n1 [compound 176] |
| 0.3 | 1.83 | 3.02 | 3.59 | 61.9 | COc1cc(N2CCC3(CCN(CCF)CC3)CC2)c(-c2cnn(C)c2)cc1Nc1ncc(Br)c(Nc2ccc3ncccc3c2P(C)(C)=O)n1 [compound 238] |
| 0.33 | 9.29 | 18.9 | 25.1 | 179 | COc1cc(N2CCC(N3CCOCC3)CC2)c(-c2cnsc2)cc1Nc1ncc(Br)c(Nc2ccc3nccnc3c2P(C)(C)=O)n1 [compound 212] |
| 0.36 | 1.77 | 2.42 | 4.02 | 127 | COc1cc(N2CCC(N3CC[C@H](OC)[C@H](F)C3)CC2)c(-c2cnn(C)c2)cc1Nc1ncc(Br)c(Nc2ccc3nccnc3c2P(C)(C)=O)n1 [compound 185] |
| 1.7 | 99.4 | 38.9 | 316 | > 10000 | COc1cc(N2CCOCC2)c(-c2cnn(C)c2)nc1Nc1ncc(C)c(Nc2ccc3nccnc3c2P(C)(C)=O)n1 [compound 71] |
| 0.21 | 5.45 | 11 | 12.7 | 91.5 | COc1cc(N2CCN(CC3CC3)CC2)c(-c2cnn(C)c2)cc1Nc1ncc(Br)c(Nc2ccc3cncnc3c2P(C)(C)=O)n1 [compound 236] |
| 0.29 | 4.47 | 12 | 10.1 | 126 | COc1cc(N2CCC3(CCN(CCF)CC3)CC2)c(-c2cnn(C)c2)cc1Nc1ncc(Br)c(Nc2ccccc2P(C)(C)=O)n1 [compound 230] |
| 0.66 | 0.35 | 2.77 | 1.91 | 84 | COc1cc(N2CCC3(CC2)CN(C)CCO3)c(-c2cnn(C)c2)cc1Nc1ncc(Br)c(Nc2ccc3nccnc3c2P(C)(C)=O)n1 [compound 144, (6-((5-bromo-2-((2-methoxy-5-(1-methyl-1H-pyrazol-4-yl)-4-(4-methyl-1-oxa-4,9-diazaspiro[5.5]undecan-9-yl)phenyl)amino)pyrimidin-4-yl)amino)quinoxalin-5-yl)dimethylphosphine oxide] |
| 0.03 | 0.54 | 2.34 | 2.85 | 31.8 | COCCN1CCN(c2cc(OC)c(Nc3ncc(Br)c(Nc4ccc5nccnc5c4P(C)(C)=O)n3)cc2-c2cnn(C)c2)CC1 [compound 92] |
| 0.81 | 3.28 | 2.48 | 6.76 | 166 | COc1cc(N2CCC(N3CCN(C)CC3)CC2)c(-c2cnn(C)c2)cc1Nc1ncc(Br)c(Nc2cc3c(cc2N(C)S(C)(=O)=O)CC3)n1 [compound 158] |
| 0.14 | 102 | 0.69 | 328 | 329 | COc1cc(N2CCC(N3CC4(CN(C)C4)C3)CC2)c(-c2cnn(C)c2)cc1Nc1ncc(Br)c(Nc2ccc3nccnc3c2P(C)(C)=O)n1 [compound 172] |
| 0.48 | 4.58 | 1.04 | 8.5 | 44.8 | COc1cc(N2CCC3(CC2)CCN(C(C)C)CC3)c(-c2cnn(C)c2)cc1Nc1ncc(Br)c(Nc2ccc3nccnc3c2P(C)(C)=O)n1 [compound 228] |
| 0.25 | 4.58 | 0.38 | 12.8 | 194 | CCc1cnc(Nc2cc(-c3cnn(C)c3)c(N3CCOCC3)cc2OC)nc1Nc1ccc2nccnc2c1P(C)(C)=O [Compound 31, (6-((5-ethyl-2-((2-methoxy-5-(1-methyl-1H-pyrazol-4-yl)-4-morpholinylphenyl)amino)pyrimidin-4-yl)amino)quinoxalin-5-yl)dimethylphosphine oxide] |
| 0.22 | 0.98 | 3.07 | 5.45 | 208 | COc1cc(N(C)C)c(-c2cnn(C)c2)cc1Nc1ncc(Br)c(Nc2ccc3nccnc3c2P(C)(C)=O)n1 [compound 32] |
| 0.08 | 1.28 | 3.61 | 2.13 | 67.8 | Cn1cc(-c2cc(Nc3ncc(Br)c(Nc4ccc5nccnc5c4P(C)(C)=O)n3)c3c(c2N2CCOCC2)CCO3)cn1 [Compound 17, (6-((5-bromo-2-((5-(1-methyl-1H-pyrazol-4-yl)-4-morpholino-2,3-dihydrobenzofuran-7-yl)amino)pyrimidin-4-yl)amino)quinoxalin-5-yl)dimethylphosphine oxide] |
| 0.34 | 19.1 | 7.68 | 32.4 | ≥ 10000 | COc1cc(N2CCOCC2)c(-c2cnn(C)c2)cc1Nc1ncc(F)c(Nc2ccc3nccnc3c2P(C)(C)=O)n1 [compound 81] |
| 1.92 | 8.67 | 40.3 | 30.3 | 195 | COc1c(Nc2ncc(Br)c(Nc3ccc4nccnc4c3P(C)(C)=O)n2)cc(-c2cnn(C)c2)c(N2CCOCC2)c1F [compound 23] |
